Experimental data as given in ChEMBL document CHEMBL6109146, “Discovery of New Pyrazolone Carbothioamide Derivatives as Potent Antifungal Agents for the Treatment of Candidiasis and Cryptococcosis” (J Med Chem, 2025).
Active and inactive are the calls of the source. The rule behind the calls is not given here.

How the values were obtained:
Nakaseomyces glabratus [1] = experiment: Fungicidal activity against Candida glabrata 0161 at 32 microg/ml incubated for 48 hrs by time-kill kinetics analysis; assay type: functional, organism-based; details: dose 32.0 µg/ml
Cryptococcus neoformans [2] = experiment: Inhibition of biofilm formation in Cryptococcus neoformans H99 at 32 microg/ml incubated for 24 hrs by XTT reagent based assay relative to control; assay type: functional
Nakaseomyces glabratus [3] = experiment: Inhibition of matured biofilm in Candida glabrata 0161 at 2 to 32 microg/ml incubated for 24 hrs by XTT reagent based assay; assay type: functional, organism-based; details: dose 2-32 µg/ml
Cryptococcus neoformans [4] = experiment: Inhibition of matured biofilm in Cryptococcus neoformans H99 at 2 to 32 microg/ml incubated for 24 hrs by XTT reagent based assay; assay type: functional, organism-based; details: dose 2-32 µg/ml
Cryptococcus neoformans [5] = experiment: Inhibition of capsule formation in Cryptococcus neoformans H99 at 32 microg/ml incubated for 24 hrs by light microscopic analysis; assay type: functional, organism-based; details: dose 32.0 µg/ml
Cryptococcus neoformans [6] = experiment: Inhibition of urease production in Cryptococcus neoformans H99 at 0.031 to 1 microg/ml by photographic analysis relative to control; assay type: functional; details: dose 0.031-1 µg/ml
Cryptococcus neoformans [7] = experiment: Inhibition of melanin production in Cryptococcus neoformans H99 at 0.031 to 1 microg/ml by photographic analysis relative to control; assay type: functional, organism-based; details: dose 0.031-1 µg/ml
Cryptococcus neoformans [8] = experiment: Induction of morphological changes in Cryptococcus neoformans H99 assessed as cell wall damage at 4 microg/ml incubated for 8 hrs by transmission electron microscopic analysis; assay type: functional, organism-based; details: dose 4.0 µg/ml
Cryptococcus neoformans [9] = experiment: Induction of morphological changes in Cryptococcus neoformans H99 assessed as nuclei damage at 4 microg/ml incubated for 8 hrs by transmission electron microscopic analysis; assay type: functional, organism-based; details: dose 4.0 µg/ml
Cryptococcus neoformans [10] = experiment: Induction of morphological changes in Cryptococcus neoformans H99 assessed as organelle damage at 4 microg/ml incubated for 8 hrs by transmission electron microscopic analysis; assay type: functional, organism-based; details: dose 4.0 µg/ml
Cryptococcus neoformans [11] = experiment: Induction of ROS accumulation in Cryptococcus neoformans H99 assessed as increase in intracellular ROS level by measuring intense green fluorescence at 4 microg/ml incubated for 24 hrs by DCFH-DA probe based fluorescence microscopic analysis; assay type: functional, organism-based; details: dose 4.0 µg/ml
Cryptococcus neoformans [12] = experiment: Induction of oxidative damage in Cryptococcus neoformans H99 assessed as increase in MDA level at 4 microg/ml incubated for 24 hrs relative to control; assay type: functional; details: dose 4.0 µg/ml
Cryptococcus neoformans [13] = experiment: Effect on intracellular free iron ions level in Cryptococcus neoformans H99 at 4 microg/ml incubated for 24 hrs by absorbance based analysis; assay type: functional, cell-based; details: dose 4.0 µg/ml
Cryptococcus neoformans [14] = experiment: Antifungal activity against Cryptococcus neoformans H99 assessed as inhibition of fungal growth in presence of 10% serum containing transferrin-bound ferric iron and free iron; assay type: functional
Cryptococcus neoformans [15] = experiment: Antifungal activity against Cryptococcus neoformans H99 assessed as inhibition of fungal growth in presence of Fe(II) ions; assay type: functional
Cryptococcus neoformans [16] = experiment: Antifungal activity against Cryptococcus neoformans H99 assessed as inhibition of fungal growth in presence of Fe(III) ions; assay type: functional
Cryptococcus neoformans [17] = experiment: (§1) Antifungal activity against Cryptococcus neoformans H99 infected in cryptococcosis female ICR mouse model assessed as reduction in pyknosis in neuronal nuclei by measuring reduction in staining at 20 mg/kg, ip pre-infected with fungi for 3 hrs followed by compound administration and measured after 5 days by H and E staining based analysis; assay type: functional, organism-based; details: time 5.0 day
Cryptococcus neoformans [18] = experiment: as §1, with “cysts formation” for “pyknosis”, “brain cortex” for “neuronal nuclei by measuring reduction in staining”; assay type: functional, organism-based; details: time 5.0 day
Candida albicans [19] = experiment: Antifungal activity against Candida albicans SC5314 assessed as inhibition of fungal growth incubated for 48 to 72 hrs by microplate reader analysis; assay type: functional, organism-based; details: time 48-72 hrs
Candida albicans [20] = experiment: Antifungal activity against Candida albicans 103 assessed as inhibition of fungal growth incubated for 48 to 72 hrs by microplate reader analysis; assay type: functional, organism-based; details: time 48-72 hrs
Candida albicans [21] = experiment: Antifungal activity against Candida albicans 9296 assessed as inhibition of fungal growth incubated for 48 to 72 hrs by microplate reader analysis; assay type: functional, organism-based; details: time 48-72 hrs
[Candida] auris [22] = Antifungal activity against Candida auris 15448 assessed as inhibition of fungal growth incubated for 48 to 72 hrs by microplate reader analysis; assay type: functional, organism-based; details: Candidozyma auris, time 48-72 hrs
[Candida] auris [23] = Antifungal activity against Candida auris 0029 assessed as inhibition of fungal growth incubated for 48 to 72 hrs by microplate reader analysis; assay type: functional, organism-based; details: Candidozyma auris, time 48-72 hrs
[Candida] auris [24] = Antifungal activity against Candida auris 0030 assessed as inhibition of fungal growth incubated for 48 to 72 hrs by microplate reader analysis; assay type: functional, organism-based; details: Candidozyma auris, time 48-72 hrs
Cryptococcus neoformans [25] = experiment: Antifungal activity against Cryptococcus neoformans H99 assessed as inhibition of fungal growth incubated for 48 to 72 hrs by microplate reader analysis; assay type: functional; details: time 48-72 hrs
Cryptococcus neoformans [26] = experiment: Antifungal activity against Cryptococcus neoformans 011409 assessed as inhibition of fungal growth incubated for 48 to 72 hrs by microplate reader analysis; assay type: functional; details: time 48-72 hrs
Cryptococcus neoformans [27] = experiment: Antifungal activity against Cryptococcus neoformans HN-68 assessed as inhibition of fungal growth incubated for 48 to 72 hrs by microplate reader analysis; assay type: functional; details: time 48-72 hrs
Cryptococcus gattii = experiment: Antifungal activity against Cryptococcus gattii 01063P assessed as inhibition of fungal growth incubated for 48 to 72 hrs by microplate reader analysis; assay type: functional; details: time 48-72 hrs
Nakaseomyces glabratus [28] = experiment: Antifungal activity against Candida glabrata 8535 assessed as inhibition of fungal growth incubated for 48 to 72 hrs by microplate reader analysis; assay type: functional; details: time 48-72 hrs
Nakaseomyces glabratus [29] = experiment: Antifungal activity against Candida glabrata 9256 assessed as inhibition of fungal growth incubated for 48 to 72 hrs by microplate reader analysis; assay type: functional; details: time 48-72 hrs
Nakaseomyces glabratus [30] = experiment: Antifungal activity against Candida glabrata 0161 assessed as inhibition of fungal growth incubated for 48 to 72 hrs by microplate reader analysis; assay type: functional; details: time 48-72 hrs

Row | Compound | Activity (Candida albicans [19]) | Activity (Candida albicans [20]) | Activity (Candida albicans [21]) | Activity ([Candida] auris [22]) | Activity ([Candida] auris [23]) | Activity ([Candida] auris [24]) | Activity (Cryptococcus neoformans [25]) | Activity (Cryptococcus neoformans [26]) | Activity (Cryptococcus neoformans [27]) | Activity (Cryptococcus gattii) | Activity (Nakaseomyces glabratus [28]) | Activity (Nakaseomyces glabratus [29]) | Activity (Nakaseomyces glabratus [30]) | also measured
1 | OC(Cn1cncn1)(Cn1cncn1)c1ccc(F)cc1F [FLUCONAZOLE] |  |  |  |  |  |  |  |  |  |  |  |  |  | Activity (Nakaseomyces glabratus [1]): inactive; inhibition at 32 µg/mL (Cryptococcus neoformans [2]): 17%; inhibition (Nakaseomyces glabratus [3]): Moderate_effect; inhibition (Cryptococcus neoformans [4]): inactive; inhibition (Cryptococcus neoformans [5]): inactive; inhibition (Cryptococcus neoformans [6]): inactive; inhibition (Cryptococcus neoformans [7]): inactive; Activity (Cryptococcus neoformans [8]): inactive; Activity (Cryptococcus neoformans [9]): inactive; Activity (Cryptococcus neoformans [10]): inactive; Activity (Cryptococcus neoformans [11]): inactive; Activity (Cryptococcus neoformans [12]): inactive; Activity (Cryptococcus neoformans [13]): inactive; MIC (Cryptococcus neoformans [14]): 2 µg/mL; MIC (Cryptococcus neoformans [15]): 2 µg/mL; MIC (Cryptococcus neoformans [16]): 2 µg/mL; Activity (Cryptococcus neoformans [17]): inactive; Activity (Cryptococcus neoformans [18]): inactive
2 | CCCCCCCCc1ccc(NC(=S)n2[nH]c(N)cc2=O)cc1 | Active | Active | Active | Active | Active | Active | Active | Active | Active | Active | Active | Active | Active | 
3 | CS(=O)(=O)c1ccc(NC(=S)n2[nH]c(N)cc2=O)cc1 | Not active; Compound Demonstrated Reduced Activity Compared To Lead Compound 1 | Not active; Compound Demonstrated Reduced Activity Compared To Lead Compound 1 | Not active; Compound Demonstrated Reduced Activity Compared To Lead Compound 1 | Not active; Compound Demonstrated Reduced Activity Compared To Lead Compound 1 | Not active; Compound Demonstrated Reduced Activity Compared To Lead Compound 1 | Not active; Compound Demonstrated Reduced Activity Compared To Lead Compound 1 | Not active; Compound Demonstrated Reduced Activity Compared To Lead Compound 1 | Not active; Compound Demonstrated Reduced Activity Compared To Lead Compound 1 | Not active; Compound Demonstrated Reduced Activity Compared To Lead Compound 1 | Not active; Compound Demonstrated Reduced Activity Compared To Lead Compound 1 | Active | Active | Active | 
4 | CCc1ccc(NC(=O)n2[nH]c(N)cc2=O)cc1 | inactive | inactive | inactive | inactive | inactive | inactive | inactive | inactive | inactive | inactive | inactive | inactive | inactive | 
5 | CCCCc1ccc(NC(=S)n2[nH]c(N)cc2=O)cc1 | Active | Active | Active | Active | Active | Active | Active | Active | Active | Active | Active | Active | Active | 
6 | Nc1cc(=O)n(C(=S)Nc2ccc3ncccc3c2)[nH]1 | Not active; Decrease In Activity Observed | Not active; Decrease In Activity Observed | Not active; Decrease In Activity Observed | Not active; Decrease In Activity Observed | Not active; Decrease In Activity Observed | Not active; Decrease In Activity Observed | Active | Active | Active | Active | Active | Active | Active | 
